Experimental data as given in a melting point compilation (Tetko et al.; mined from patent text by program, amines drawn as free bases though some values may be those of a salt).

Structure (SMILES) | melting point [°C]
CN1C(=O)Cc2cc(C(=O)CN3CCN(c4ccccc4)CC3)cnc21 | 136 to 137
Nc1nc(Cl)cc(NCCO)n1 | 143 to 146
COC(=O)CCCc1n[nH]c(=O)c2cc(OC)ccc12 | 175 to 177
O=C(O)CCNc1ccc2c(C(=O)NCC34CC5CC(CC(C5)C3)C4)c(Cl)ccc2n1 | 251 to 252
CCCC(c1ccc(C)cc1)n1c(C(=O)OC)cnc1S (stereo not given) | 209 to 211
CCOC(=O)c1cc(-n2c(=O)[nH]c3c(c2=O)CCC3)ccc1Cl | 178 to 180
O=C(N[C@@H](Cc1ccccc1)[C@H](O)CCl)OCc1ccccc1 | 151 to 153
O=C(O)C(Cc1ccc(OCCn2c(-c3ccccc3)nc3ccccc32)cc1)n1cccc1 (stereo not given) | 210 to 212
O=C(NCCN1CCCCC1)c1ccc(=O)n(Cc2ccc(-c3ccccc3)cc2)c1 | 137 to 142
CC(C)[C@H](NC(=O)OCc1ccccn1)C(=O)N[C@@H](Cc1ccccc1)[C@@H](O)C[C@H](Cc1ccccc1)NC(=O)OCc1cccnc1 | 169 to 171
Cc1cn(-c2cc(C#N)cc(C(F)(F)F)c2)cn1 | 127 to 128
O=C(NC1CCN(CCCCc2cc(F)cc3c2-c2ccc(F)cc2C3C(=O)NCC(F)(F)F)CC1)c1ccccc1 (stereo not given) | 177 to 179
Fc1ccc(NC(=S)c2ccccn2)c(F)c1 | 124 to 129
CCOC(=O)c1cc(Br)cc2c(=O)cc(-c3cccc(OCc4ccc5ccccc5c4)c3)oc12 | 211 to 213
CCCCCN1C(=O)C(=O)c2c(OC)cccc21 | 80 to 82
CC(C)(C)OC(=O)N1CCN(C(=O)c2cc(C(F)(F)F)cc(C(F)(F)F)c2)[C@H](Cc2c[nH]c3ccccc23)C1 | 155 to 156
CCOC(=O)C1CCc2c([nH]c3ccc(N)cc23)C1 (stereo not given) | 123 to 124
O=C(O)c1ccc(C#Cc2ccccc2)cc1OCc1ccccc1 | 125 to 127
CC(C)(C)CNc1cc(Cl)nc(Cl)n1 | 77 to 79
N#Cc1ccc(C(=O)Nc2ccc(Cl)c([N+](=O)[O-])c2)cc1 | 213
Cc1ccsc1C(=O)Cc1ccccc1[N+](=O)[O-] | 85 to 86.5
NC(=O)c1cccc(-c2ccnc(C(=O)N(O)Cc3ccccc3)c2)c1 | 158 to 162
COC(=O)c1snc(-c2cccc(C)c2)c1C(=O)OC | 53 to 54.5
CC(C)(C)OCOc1cc(NC(=O)NC(=O)c2ccc(C(N)=S)cc2)ccc1OCC(=O)OC(C)(C)C | 198 to 199
COc1cc2cccc(OC)c2cc1C(=O)O | 151 to 153

Structure (SMILES) | melting point [°C]
COc1ccc2c(c1)c(C(C)=O)cn2C | 167 to 168
CCC(CC)CCOCCCCCCNCC(O)c1ccc(O)c(NS(C)(=O)=O)c1 (stereo not given) | 69 to 71
Cc1nn2c(c1C(N)=O)NCC=C2c1cc(Cl)ccc1Cl | 93 to 96
O=c1nc(NCc2ccccc2)n2c3c1cnn3C(c1cccc(C(F)(F)F)c1)=CC2 | 220 to 224
Cn1c(C(F)(F)F)cc(=O)n(-c2cc(OC3CCCC3)c(Cl)cc2F)c1=O | 118 to 120
CCCN(CCC)CCc1ccc(O)c(NC(N)=O)c1 | 168 to 171
O=C(O)[C@H]1CCCN1C(=O)C(F)(F)F | 48 to 51
CC(C)(C(=O)O)N1COC(C(F)F)=C(c2ccccc2)C1=O | 149 to 151
CC(=O)N(c1ccccc1)c1ccc(C(=O)CBr)cc1 | 152 to 153
CCCCOc1c(C=O)n(C)c(=O)c2cc(Cl)c(Cl)cc12 | 114 to 115
COc1ccc2c(=O)c3cccc(OCc4ccccc4)c3oc2c1 | 158
O=C1NN(c2nc3ccc(Cl)cc3s2)C(c2ccccc2)C1c1ccccc1 (stereo not given) | 170 to 172
O=[N+]([O-])c1ccc2c(c1)C(c1ccccc1F)=NCc1nc(CO)cn1-2 | 230 to 231
c1ccc(C(=NOC(=NC2CCCCC2)NC2CCCCC2)c2ccccc2)cc1 | 104 to 107
CN1CCC(c2[nH]c(=O)c3ccccc3c2-c2ccccc2F)CC1 | 247 to 249
CC(C)C(=O)NC(c1ccc(Br)cc1)C(F)(F)F (stereo not given) | 176 to 178
CC(C)(C)COc1ccc(C2=CC=CN3CCS(=O)(=O)N=C23)cc1 | 258 to 259
CC(C)(C)OC(=O)NCCc1cccc(O)c1 | 79 to 82
O=C(O)c1cc(SCc2ccsc2)c(-c2ccccc2)c([N+](=O)[O-])c1 | 159 to 161
COc1cc(N2C(=O)N3CCCCC3C2O)c(F)cc1Cl (stereo not given) | 155 to 157
CC1(C)COC(c2ccc(Br)cc2)OC1 | 62 to 64
CCCc1nc2c(N)nc3cc(OCCCCCCNC(=O)c4ccc(N=[N+]=[N-])cc4O)ccc3c2s1 | 127 to 128
CN(C=O)[C@@H]1CCCc2ccccc21 | 53 to 55
CCNC(=O)CCCNC(=O)OC(C)(C)C | 82 to 83
O=C1C[N+]([O-])=C(c2ccccc2F)c2cc(Cl)ccc2N1CC(O)CO (stereo not given) | 165 to 166

Structure (SMILES) | melting point [°C]
NCC1c2ccccc2CCN1CC(O)CN1CCOCC1 (stereo not given) | 138 to 139
COC(=O)Cc1ccc(C2=CC(=O)c3ccccc3C2=O)n1C | 89 to 90
O=[N+]([O-])C1=C2N(Cc3ccc(Cl)nc3)CCN2C2CCCC1O2 (stereo not given) | 175
CCCC[C@H](NC(=O)[C@H](CC(C)C)NC(=O)c1ccc(C(=O)OC)cc1)C(=O)CSCc1ccco1 | 100 to 102
CN(C(=O)c1ccccc1)C(=N[N+](=O)[O-])NCc1cnc(Cl)s1 | 170 to 172
CC(C)=CCN(CC=C(C)C)Cc1noc(-c2ncn3c2[C@@H]2CCCN2C(=O)c2c(Cl)cccc2-3)n1 | 137 to 140
COC(=O)CCNC(=O)c1ccc2c(c1)nc(-c1ccc(C(=N)N)cc1)n2CCCCc1ccccc1 | 184 to 186
CCN(CC)C(=O)c1cc(OC)c(OC)cc1-c1c(C(=O)N(CC)CC)ccc2c1OCO2 | 148 to 149
Cc1cc(Oc2ccc(Cl)c3c2CCCC3)c(Cl)cc1[N+](=O)[O-] | 139 to 140
FC(F)(F)c1cccc(NC2CCN(c3ccc(Cl)nn3)CC2)c1 | 118
CCOC(=O)c1c(N2CCN(C(=O)c3cccs3)CC2)c2cc(Cl)cnc2n(Cc2ccccc2)c1=O | 197
COc1ccccc1N1CCN(CC(O)COc2ccccc2-c2ccnc(N)n2)CC1 (stereo not given) | 147 to 149
C=CCOC1CC2C3CCC4=CC(=O)CCC4(C)C3(F)C(O)CC2(C)C1(O)C(=O)CO (stereo not given) | 189 to 191
CN(C)CCCC1(c2ccc(OC3CCCCO3)cc2)Sc2ccccc2N(C)C1=O (stereo not given) | 98.5 to 101
Cc1[nH]c(=O)ccc1C#N | > 300
CC1CC=CCN1Cc1ccc(O)cc1 (stereo not given) | 109 to 112
Cc1cc(CCCCCCC(OS(=O)(=O)O)c2nnnn2C)on1 (stereo not given) | 58 to 60
OC(c1ccccc1)(c1ccccc1Cl)c1nccn1Cc1ccccc1 (stereo not given) | 168
CN(C)c1ccccc1CS(=O)(=O)c1nccn1-c1ccncc1 | 132 to 135
CC(c1ccc(C=Cc2ccccc2)s1)N(O)C(N)=O (stereo not given) | 160 to 163
CN(C)C(=O)C1CCCc2c1c1ccccc1n2Cc1ccccc1 (stereo not given) | 208 to 210
CC1=Nc2c(C)nn(C)c2C2=NC(C)CN12 (stereo not given) | 169 to 172
CC(C)N1CC[C@@H](Oc2ccc(-n3ccc(OCc4ccc(Cl)cn4)cc3=O)cc2)C1 | 154 to 155
CCC(CC)n1cc(Cl)nc(N2CCc3cc(OC)cc(Br)c32)c1=O | 130 to 132
CCc1cccc(CC)c1N(Cc1c[nH]nn1)C(=O)c1ccccc1 | 112 to 115

Structure (SMILES) | melting point [°C]
CCCCCCCCCCCCCCCCCCOC(=O)Cc1cc(C(C)(C)C)c(O)c(C)c1C | 79 to 81
O=C(O)c1cc(F)ccc1Nc1ccnc2c(C(F)(F)F)cccc12 | 262 to 268
CCOc1cc(OCCCc2cn(-c3ccc(C(F)(F)F)cn3)nc2OCC)ccc1CCC(=O)O | 96 to 97
COc1ccc(-c2cc(=O)[nH]c(=O)[nH]2)cc1OC | > 300
Cn1c(CCCCl)nc2ccc3ccccc3c21 | 246 to 248
Nc1ccc(Oc2c(Cl)cc(C(F)(F)F)cc2Cl)cc1S(=O)(=O)c1cc[nH]n1 | 232
COC(=O)c1ccc(OC)c(Nc2ccccc2)c1 | 79 to 81
COc1ccc(Nc2nc(NC3CCCCCC3)nc(Oc3ccc(C#CC(C)(C)O)cc3)n2)cc1Cl | 132 to 134
Cc1ccc(C)c2c1OC(=O)C2c1ccc(C(C)C)cc1 (stereo not given) | 107 to 109
CCCc1nc2c(N)nc3ccc(N)cc3c2s1 | 190 to 192
O=C(c1ccc2cc(Cl)ccc2c1)C1CCNCC1 | 98 to 100
O=[N+]([O-])c1ccc(Oc2ccc(C(F)(F)F)cc2Cl)cc1C=NO | 111 to 115
COC(=O)c1cc(C(=O)c2c(C)c(N(C)C(=O)c3cccc(OC)c3)c3ccccn23)ccc1[N+](=O)[O-] | 158
COC(=O)c1cc(C=O)c(C(F)(F)F)cc1NC(C)=O | 106 to 108
CN1CCN(c2ccc(Nc3cc(-c4cccc(N5CCc6c(cc7n6CCCC7)C5=O)c4CO)cn(C)c3=O)nc2)CC1 | 180 to 181
O=C(c1ccc(F)c(Br)c1)N1CCC(Br)C(c2ccccc2)=N1 (stereo not given) | 147 to 148
Cc1nc2c(O[C@@H]3c4ccccc4C[C@H]3O)cc(Cl)cn2c1N (relative stereo) | 223 to 225
CC(C)Sc1nc(-c2ccc(F)cc2)c(-c2ccncc2)[nH]1 | 263 to 264
CCOC(=O)C1=C(COCCO)NC(C)=C(C(=O)OC)C1c1cccc(Cl)c1Cl (stereo not given) | 120 to 121
COc1ccc(-c2nn(CC=Cc3ccc(Cl)cc3)c(=O)cc2-c2ccc(OC)c(F)c2)cc1 | 109 to 111
COC(=O)c1c(CC#N)c(-c2ccc3c(c2)OCO3)c2c3c(ccc2c1C)OCO3 | 215 to 217
CSc1nc(N)nn1C | 104 to 109
COc1ccc(C(=O)Nc2c(Cl)cncc2Cl)c2c1OC(C)(C)C=C2 | 174 to 178
CC(c1ccccc1)N1CCC(n2cnc3ccc(Cl)cc3c2=O)CC1 (stereo not given) | 160 to 162
O=C1CCc2cc3c(cc21)CCC3 | 72.4 to 74.8
